Molecular target: T1, human and rat GPR-14 (UniProt Q9UKP6)
T1 sequence (Q9UKP6 1-389): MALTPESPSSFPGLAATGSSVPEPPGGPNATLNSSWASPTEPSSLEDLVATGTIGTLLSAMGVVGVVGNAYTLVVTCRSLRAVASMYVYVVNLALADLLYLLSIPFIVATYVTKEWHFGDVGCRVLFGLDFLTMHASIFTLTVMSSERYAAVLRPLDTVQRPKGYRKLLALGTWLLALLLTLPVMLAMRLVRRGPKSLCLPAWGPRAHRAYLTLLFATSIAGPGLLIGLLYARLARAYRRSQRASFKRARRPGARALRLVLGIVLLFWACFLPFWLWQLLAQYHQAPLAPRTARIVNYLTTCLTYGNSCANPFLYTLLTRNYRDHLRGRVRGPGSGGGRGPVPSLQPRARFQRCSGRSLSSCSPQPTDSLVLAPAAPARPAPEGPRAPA
Experiment: Radioligand binding, [125I] h-U-II, HEK-293 cell membranes
Conditions: radioligand binding assay; HEK-293 cell membranes with stable cloned GPR-14; 200 pM [125I] h-U-II
Description: HEK-293 cell membranes containing stable cloned human and rat GPR-14 (20 ug/assay) were incubated with 200 pM [125I] h-U-II (200 Ci/mmol^−1 in the presence of increasing concentrations of test compounds in DMSO (0.1 nM to 10 uM), in a final incubation volume of 200 ul (20 mM Tris-HCl, 5 mM MgCl2). Incubation was done for 30 minutes at room temperature followed by filtration GF/B filters with Brandel cell harvester. ^125I labeled U-II binding was quantitated by gamma counting. Nonspecific binding was defined by ^125I U-II binding in the presence of 100 nM of unlabeled human U-II. Analysis of the data was performed by nonlinear least square fitting.

Ki: 90 nM
SMILES: COc1cc(NCCCNC(=O)C(c2ccccc2)c2ccccc2)nc2ccccc12 [Example 29, N-[3-(4-Methoxy-quinolin-2-ylamino)-propyl]-2,2-diphenyl-acetamide]
